According to patent US20230381178A1, “METHODS FOR IMPROVING RENAL FUNCTION WITH A COMBINATION OF A BET BROMODOMAIN INHIBITOR AND A SODIUM DEPENDENT GLUCOSE TRANSPORT 2 INHIBITOR” (Resverlogix Corp., priority 2020, published 2023):

How the values were obtained:
[1] = patients with established cardiovascular disease and eGFR<60 mL/min/1.73 m^2; monotherapy; p=0.04 vs. baseline (Kulikowski et al 2017); cited from earlier work
[2] = BETonMACE Phase 3 trial post-hoc analysis: eGFR (Cockcroft-Gault, serum creatinine) from baseline to last visit on treatment; assay type: in vivo, human
Procedure: Apabetalone (RVX-208) was evaluated in a recently completed clinical Phase 3 trial (BETonMACE; NCT02586155) for the effect on MACE in type 2 diabetes patients with low HDL cholesterol (below 40 mg/dL for males and below 45 mg/dL for females) and a recent acute coronary syndrome (ACS) (preceding 7-90 days). All patients received high intensity statin treatment or maximum tolerated statin treatment, which was 20-40 mg daily or a maximum daily dose of 40 mg for rosuvastatin or 40-80 mg daily or a maximum daily dose of 80 mg for atorvastatin.
Patients (n=2425) with ACS in the preceding 7 to 90 days, with type 2 diabetes and low HDL cholesterol (≤40 mg/dl for men, <45 mg/dl for women), receiving intensive or maximum-tolerated therapy with atorvastatin or rosuvastatin, were assigned in double-blind fashion to receive apabetalone 100 mg orally twice daily or matching placebo. Baseline characteristics include female sex (25%), myocardial infarction as index ACS event(74%), coronary revascularization for index ACS (76%), treatment with dual anti-platelet therapy (87%) and renin-angiotensin system inhibitors (91%), median LDL cholesterol 65 mg per deciliter, and median HbA1c 7.3%. The primary efficacy measure is time to first occurrence of cardiovascular death, non-fatal myocardial infarction, or stroke. The study enrolled 2425 patients and the MACE outcome population consisted of 2418 patients.
In the BETonMACE clinical study, a total of N=298 patients (N=150 in RVX-208 treatment group and N=148 in placebo treatment group) were administered an SGLT2 inhibitor (empagliflozin, dapagliflozin, or canagliflozin) in addition to RVX-208 with specified statin therapy (atorvastatin and rosuvastatin) and other guideline-defined treatments. Specifically, a total of 150 patients received both RVX-208 and an SGLT2 inhibitor; a total of 148 received an SGLT2 inhibitor, but no RVX-208; a total of 1062 received RVX-208, but no SGLT2 inhibitor; a total of 1058 received neither RVX-208 or an SGLT2 inhibitor.
Patients who were randomized and received at least one dose of SGLT2 treatment while actively receiving study drug (RVX-208 or placebo) were counted as those receiving a combination of SGLT2 treatment with either RVX-208 or placebo. Patients receiving more than one drug therapy within the SGLT2 inhibitor class were counted only once based upon whichever drug therapy patients continued taking at the end of treatment with study drug (RVX-208 or placebo). In cases where patients were receiving more than one drug therapy within the SGLT2 inhibitor class at the end of treatment with study drug, whichever SGLT2 inhibitor therapy was received for longer was counted.
Estimated glomerular filtration rate (eGFR) was calculated by the central lab using serum creatinine values and the Cockcroft-Gault formula. Serum creatinine was collected as part of the chemistry panel at the following time points: baseline, week 24, week 52, week 76, week 100, and last visit on treatment (LVT). The Cockcroft-Gault formula requires the input of an individual's age, sex, and weight. The last visit on treatment (LVT) timepoint represented the longest study exposure duration for patients receiving RVX-208 or placebo with and without SGLT2 inhibitors and is the focus of this analysis. The median time to LVT (and study drug exposure) for patients with a baseline and LVT measurements for eGFR administered an SGLT2 inhibitor (N=298) was 742 days (2.03 years). For the patients treated with a SGLT2 inhibitor and RVX-208 (N=150), the median time to LVT was 748 days (2.05 years) and for the patients treated with a SGLT2 inhibitor and received placebo (N=148), the median time to LVT was 734 days (2.01 years). No statistical difference was observed between the duration of study drug exposure, indicating a balance was observed between treatment groups. At the LVT timepoint, a total of N=121 patients in the apabetalone treatment group and N=122 patients in the placebo group had eGFR measurements. […]

[3] = BETonMACE, T2DM patients with a recent ACS (Ray et al. 2020); cited from earlier work

In the case of `COc1cc(OC)c2c(=O)[nH]c(-c3cc(C)c(OCCO)c(C)c3)nc2c1` [RVX-208, 2-(4-(2-hydroxyethoxy)-3,5-dimethylphenyl)-5,7-dimethoxyquinazolin-4(3H)-one], the “increase in eGFR” value [1] is given as 3.4%, the “effect on eGFR / renal function” value ([2]; BETonMACE post-hoc, T2DM patients with a recent ACS) is given as “not able to increase median or mean eGFR levels” and the “median eGFR at last visit on treatment (LVT)” value ([2]; T2DM patients with recent ACS, on statin, RVX-208 100 mg orally twice daily where given, at LVT (median about 2 years)) is given as 96 mL/min. The “median eGFR at baseline” value ([2]; T2DM patients with recent ACS, on statin, at baseline) was 97 mL/min, the “median change of eGFR from baseline to LVT” value ([2]; T2DM patients with recent ACS, FIG. 3) was −3.2 mL/min/1.73 m^2 and the “mean change of eGFR from baseline to LVT” value ([2]; T2DM patients with recent ACS, FIG. 4) was −3.3 mL/min/1.73 m^2. The “median eGFR slope from baseline to LVT” value ([2]; eGFR difference baseline to LVT divided by number of treatment days, monotherapy groups) was −0.004 and the “effect on eGFR versus placebo” value [3] was “did not demonstrate the ability to statistically improve eGFR versus placebo”.
